Values after ≈ are worked out from the molar mass of the structure shown. Where a SMILES comes first, the peptide text is derived from it. Primed or numbered codes have the meaning given here. Where no end group is shown, it is not given here. Linker = not defined here; FITC′ = not defined here

The source of these data is patent publication US10501495B2, “Antimicrobial surface” (The University of Birmingham, priority 2014, dated 2019).

One data set has as its system E. coli. Format: cell-based. Here is the method: (§1) The antibacterial activity of various amino acid sequences was tested against S. aureus, P. aeruginosa and E. coli.
For another data set, the system named is P. aeruginosa. It is filed as cell-based. Here is the method:
as §1

Another data set concerns S. aureus. Format: cell-based. The procedure: as §1
Data set [1] can be described thus: Further release studies of linker-FITC peptides from surface under different temperatures and pH. Format: physicochemical. The procedure: Further release studies were carried out to ascertain the strength of adherence of the peptides RKLPDA (SEQ ID NO: 12), RKLPDARKLPDA (SEQ ID NO: 13) and EEEEEEE (SEQ ID NO: 14) to the surface under different temperatures and pH. Each peptide comprised a linker-FITC sequence for fluorescence. Surfaces were coated with peptide as described for FIG. 1. The peptide-coated disks were incubated in PBS or in a balanced buffer at a set pH. Aliquots of the solution surrounding the surface were taken out at set time points and the fluorescence of the peptide in the solution monitored to establish the rate of peptide diffusion from the disk into the surrounding solution.

A short description of data set [2]: Binder-surface adherence of FITC-labelled binder peptide, fluorescence microscopy. Format: physicochemical. As to conditions: hydroxyapatite disks and titanium squares, pH 7, room temperature, washed before imaging. From the text: This work established that the binder peptides interact with the surfaces
Data set [3] in a line: Release study of FITC peptide from hydroxyapatite disk into PBS (fluorescence). Format: physicochemical. The procedure: A release study was carried out to ascertain the strength of adherence of the DDDDDDD (SEQ ID NO: 15)-Linker-FITC peptide to the hydroxyapatite surface. Disks of hydroxyapatite were incubated in 1 mg/ml peptide solutions for 1 hour and then washed thoroughly with PBS. The disk was then placed into a cuvette and surrounded with PBS solution (2 ml). The fluorescence of the solution around the disk was measured to ascertain the rate of peptide diffusion from the disk into the surrounding solution.

Setting [4] is: room temperature, balanced buffer pH 9 (FIG. 5).
The mark [5] stands for this setting: room temperature, balanced pH 7 buffer (FIG. 4).

Regarding EEEEEEEE, in the data set with E. coli, the “Minimum inhibitory concentration (MIC) E. coli” value is “none”. For the same compound, in the data set with P. aeruginosa, the “Minimum inhibitory concentration (MIC) P. aeruginosa” value was “none”. For the same compound, the “Minimum inhibitory concentration (MIC) S. aureus” value in the data set on S. aureus is “none”.

For `CC(C)C[C@H](NC(=O)CNC(=O)[C@H](CS)NC(=O)[C@@H](NC(=O)CN)[C@@H](C)O)C(=O)N1CCC[C@H]1C(=O)NCC(=O)N[C@H](C(=O)N[C@@H](CCCCN)C(=O)N[C@@H](CS)C(=O)N[C@@H](CS)C(=O)O)[C@@H](C)O` [GTCGLPGTKCC] (H-GTCGLPGTKCC-OH; N-terminus and C-terminus assumed), the “Minimum inhibitory concentration (MIC) E. coli” value in the data set on E. coli turned out to be 10000 µg/mL (≈ 9.62 mM). In addition, the “Minimum inhibitory concentration (MIC) P. aeruginosa” value in the data set on P. aeruginosa stood at 5000 µg/mL (≈ 4.81 mM). Further, in the data set with S. aureus, the “Minimum inhibitory concentration (MIC) S. aureus” value stood at 5000 µg/mL (≈ 4.81 mM).

On to “EEEEEEE (also: linker-FITC, site not given here)”, for which the “release of peptide from surface” value in data set [1] (4° C., pH 7 PBS (FIG. 3)) is “released”; in data set [1] (37° C., pH 7 PBS (FIG. 2)), “released”; in data set [1] (setting [4]), “released”; in data set [1] (setting [5]), “released”. For the same compound, the “release in comparison to RKLPDA and RKLPDARKLPDA” value in data set [1] (room temperature, pH 4 (FIG. 6)) is recorded as “Increased release”.

With PACIGERRY [PACIGERRY], the “Minimum inhibitory concentration (MIC) E. coli” value with E. coli was 10000 µg/mL. The “Minimum inhibitory concentration (MIC) P. aeruginosa” value in the data set on P. aeruginosa was 10000 µg/mL. The “Minimum inhibitory concentration (MIC) S. aureus” value in the data set on S. aureus was determined as 10000 µg/mL.

Turning to `N=C(N)NCCC[C@H](NC(=O)[C@H](CCCNC(=N)N)NC(=O)[C@H](CCCNC(=N)N)NC(=O)[C@H](CCCNC(=N)N)NC(=O)[C@H](CCCNC(=N)N)NC(=O)[C@@H](N)CCCNC(=N)N)C(=O)O` [RRRRRR], the “Minimum inhibitory concentration (MIC) E. coli” value with E. coli was determined as 2500 µg/mL (≈ 2.62 mM). Also, in the data set with P. aeruginosa, the “Minimum inhibitory concentration (MIC) P. aeruginosa” value turned out to be 39 µg/mL (≈ 0.0408 mM) and the “efficacy against P. aeruginosa (in words)” value was “surprisingly high efficacy”. Further, in the data set with S. aureus, the “Minimum inhibitory concentration (MIC) S. aureus” value was 5000 µg/mL (≈ 5.23 mM).

With GTCIYQRLNAF [GTCIYQRLNAF], the “Minimum inhibitory concentration (MIC) E. coli” value in the data set on E. coli came to 10000 µg/mL. In the data set on P. aeruginosa, the “Minimum inhibitory concentration (MIC) P. aeruginosa” value amounted to 10000 µg/mL. Moreover, the “Minimum inhibitory concentration (MIC) S. aureus” value in the data set on S. aureus amounted to 10000 µg/mL.

As to “RKLPDA (also: linker-FITC, site not given here)”, the “release of peptide from surface” value in data set [1] (setting [4]) and in data set [1] (setting [5]) was “not released” each time. The “Minimum inhibitory concentration (MIC) E. coli” value in the data set on E. coli is “none”. In the data set on P. aeruginosa, the “Minimum inhibitory concentration (MIC) P. aeruginosa” value is “none”. Besides, the “Minimum inhibitory concentration (MIC) S. aureus” value in the data set with S. aureus is “none”.

In the case of “DDDDDDD (DDDDDDD-{Linker-FITC′}; not fully specified; reading uncertain)”, the “adherence of FITC-labelled binder peptide to surfaces” value in data set [2] is recorded as “adhered well to the surfaces”. For the same compound, the “rate of release from hydroxyapatite into surrounding solution” value in data set [3] (disk incubated in 1 mg/ml peptide 1 hour, PBS 2 ml) was “fairly slow rate”. Besides, in data set [3] (hydroxyapatite disk in PBS), the “time up to which increases in fluorescence (release) were observed” value is “up to 10 hours”.

For the compound RLYLRIGRR [RLYLRIGRR], the “Minimum inhibitory concentration (MIC) E. coli” value in the data set on E. coli stood at 250 µg/mL. Moreover, the “Minimum inhibitory concentration (MIC) P. aeruginosa” value in the data set on P. aeruginosa amounted to 2000 µg/mL. For the same compound, the “Minimum inhibitory concentration (MIC) S. aureus” value in the data set with S. aureus worked out at 500 µg/mL.

Consider RRIYGRGYIRR [RRIYGRGYIRR], for which the “Minimum inhibitory concentration (MIC) E. coli” value in the data set on E. coli is 1250 µg/mL. Also, the “Minimum inhibitory concentration (MIC) P. aeruginosa” value in the data set with P. aeruginosa was 2500 µg/mL. Also, the “Minimum inhibitory concentration (MIC) S. aureus” value in the data set with S. aureus is 2500 µg/mL.

Take “RKLPDARKLPDA (also: linker-FITC, site not given here)”: the “release of peptide from surface” value in data set [1] (setting [4]) and in data set [1] (setting [5]) was “not released” in each case.

Turning to “RRIYGRGYIRREEEEEEEE [RRIYGRGYIRREEEEEEEE]”, the “Minimum inhibitory concentration (MIC) E. coli” value with E. coli is 5000 µg/mL. Also, the “Minimum inhibitory concentration (MIC) P. aeruginosa” value in the data set on P. aeruginosa amounted to 10000 µg/mL. In addition, in the data set with S. aureus, the “Minimum inhibitory concentration (MIC) S. aureus” value was determined as 5000 µg/mL.

In the case of RRIYGRGYIRRRKLPDA [RRIYGRGYIRRRKLPDA], the “Minimum inhibitory concentration (MIC) E. coli” value in the data set with E. coli came out at 5000 µg/mL. Besides, the “Minimum inhibitory concentration (MIC) P. aeruginosa” value in the data set with P. aeruginosa worked out at 10000 µg/mL. For the same compound, the “Minimum inhibitory concentration (MIC) S. aureus” value with S. aureus was determined as 10000 µg/mL.
